Source: US11357749B2, “Methods for treating neutropenia” (Enzychem Lifesciences Corporation, priority 2014, dated 2022)

B1: G-CSL: Granulocyte-colony stimulating factor, glycoprotein that stimulates hematopoietic precursor cells; 0.25 mpk i.p. in mice (protein, UniProt P09920 31-208, looked up)
Granulocyte …: VPLVTVSALPPSLPLPRSFLLKSLEQVRKIQASGSVLLEQLCATYKLCHPEELVLLGHSLGIPKASLSGCSSQALQQTQCLSQLHSGLCLYQGLLQALSGISPALAPTLDLLQLDVANFATTIWQQMENLGVAPTVQPTQSAMPAFTSAFQRRAGGVLAISYLQGFLETARLALHHLA

Assays:
C3 [1] = experiment: C3 expression (RT-PCR) in IL-4/TNF-α treated HMC-1 cells; type: cell-based, human; details: HMC-1 cells treated with IL-4 and TNF-α; PLAG 0.1 and 1 μg/mL
Experimental: A blood cell line, HMC-1 (human mast cell, American Type Culture Collection, ATCC, Rockville, Md.) is incubated and maintained at 37° C. under 5% CO2 humid conditions. The medium is IMDM (Life Technologies, Karlsruhe, Germany) containing 10% Fetal Calf Serum (FCS, HyClone, Logan, Utah), 2 mM […], 100 μg/ml penicillin, 100 μg/ml streptomycin (Life Technologies). The cultured HMC-1 cells (1×10^6 cell/ml) are pre-treated with 0.1 and 1 μg/mL concentration of PLAG, followed by treating with IL-4 (5 ng) and/or TNF-α (10 ng) to induce cellular activities.
The expressed C3 and its mRNA level change are observed by using RT-PCR (Reverse Transcriptase Polymerase Chain Reaction). The RT-PCR is carried out as follows: the total RNA is separated by the standard protocol and cDNA is synthesized using AccuScript High Fidelity 1st Strand cDNA Synthesis Kit (Stratagene) by the manufacturer's instructions. Two-step RT-PCR reaction is conducted using Oligo-dT primer and reverse transcriptase, pair of primer and Taq polymerase (Takara, Shiga, Japan). […] The product of PCR is separated using 1.5% agarose gel, dyed with ethidium bromide (EtBr), and visualized with Gel Doc 2000 UV trans-illuminator (Bio-Rad Laboratories, Hercules, Calif., USA), and the experimental data is analyzed using Quantity One software (Bio-Rad Laboratories).

C3 [2] = experiment: C3 mRNA (RT-PCR) in HepG2 cells; type: cell-based, human; details: HepG2, 10 and 100 microgram/ml of S6I, compared with PLAG
Experimental: A liver cell line, HepG2 (American Type Culture Collection, ATCC, Rockville, Md.), is incubated and maintained at 37° C., 5% CO2 humid atmosphere in DMEM medium. When HepG2 cells, which are known to produce complement in culture, are treated with PLAG, the activity of complement is reduced effectively, as confirmed by RT-PCR of mRNA. In the RT-PCR, 5×10^5 number of HepG2 cells/ml are distributed into 12 well plates and induced C3 for 12 hours with 10% FCS. Then PLAG is added and further cultured for 2 hours. Cells are harvested and mRNA is isolated and RT-PCR is carried out with specific primer of C3; GAPDH is used as an internal control.

[3] = test system: white blood cells and neutrophils; experiment: Cyclophosphamide-induced neutropenia in mice, G-CSF with or without PLAG; type: in vivo; details: mice, cyclophosphamide 100 mpk i.p. ten days; G-CSF 0.25 mpk i.p.; PLAG 25 mpk p.o.
Text: Mice receive cyclophosphamide (100 mpk, i.p.) for a period of ten days, with or without G-CSF (0.25 mpk, i.p.) or G-CSF (0.25 mpk, i.p.) plus PLAG (25 mpk, p.o.): […]

| Molecule | expression of C3 (C3 [1]) | C3 expression (RT-PCR) (C3 [2]) | Neutrophils [3] [k/μl] | White blood cells (WBCs) [3] [k/μl] |
| --- | --- | --- | --- | --- |
| NC(=O)c1cnc(NCCc2ccc(O)c(Cl)c2)nc1NCc1ccccc1 [S6I, reference compound] | suppresses expression of C3 | comparable |  |  |
| B1 |  |  | 4.36 | 5.37 |
